T1: human SIDT1 (hSIDT1) (Homo sapiens, UniProt Q9NXL6)
T1 construct: full length; expressed in Expi293F cells by baculovirus; digitonin extraction, GDN micelle; N-glycosylated homodimer
T1 sequence (Q9NXL6 20-827): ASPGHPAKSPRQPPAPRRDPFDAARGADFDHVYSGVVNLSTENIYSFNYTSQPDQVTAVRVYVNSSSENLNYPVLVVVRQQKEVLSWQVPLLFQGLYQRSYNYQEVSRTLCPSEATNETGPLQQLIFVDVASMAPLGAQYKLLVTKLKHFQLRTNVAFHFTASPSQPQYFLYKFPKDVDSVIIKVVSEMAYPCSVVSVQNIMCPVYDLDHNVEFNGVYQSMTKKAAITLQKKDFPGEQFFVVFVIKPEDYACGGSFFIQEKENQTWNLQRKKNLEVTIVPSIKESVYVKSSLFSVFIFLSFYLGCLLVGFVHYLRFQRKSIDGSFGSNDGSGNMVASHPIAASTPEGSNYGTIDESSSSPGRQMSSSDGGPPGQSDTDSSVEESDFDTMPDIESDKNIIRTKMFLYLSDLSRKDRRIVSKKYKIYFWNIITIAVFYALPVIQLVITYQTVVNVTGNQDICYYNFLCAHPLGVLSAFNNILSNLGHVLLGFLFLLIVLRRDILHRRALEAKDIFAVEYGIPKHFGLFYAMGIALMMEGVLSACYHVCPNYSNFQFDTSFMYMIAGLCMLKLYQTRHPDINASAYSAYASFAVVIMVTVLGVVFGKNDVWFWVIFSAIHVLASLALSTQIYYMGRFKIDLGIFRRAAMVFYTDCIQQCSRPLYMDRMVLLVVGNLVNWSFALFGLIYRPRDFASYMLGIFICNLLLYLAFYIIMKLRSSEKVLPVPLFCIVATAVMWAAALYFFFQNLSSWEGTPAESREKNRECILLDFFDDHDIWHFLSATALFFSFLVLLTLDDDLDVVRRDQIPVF

T2: human SIDT1 full length WT (Homo sapiens, UniProt Q9NXL6 1-827)
T2 sequence: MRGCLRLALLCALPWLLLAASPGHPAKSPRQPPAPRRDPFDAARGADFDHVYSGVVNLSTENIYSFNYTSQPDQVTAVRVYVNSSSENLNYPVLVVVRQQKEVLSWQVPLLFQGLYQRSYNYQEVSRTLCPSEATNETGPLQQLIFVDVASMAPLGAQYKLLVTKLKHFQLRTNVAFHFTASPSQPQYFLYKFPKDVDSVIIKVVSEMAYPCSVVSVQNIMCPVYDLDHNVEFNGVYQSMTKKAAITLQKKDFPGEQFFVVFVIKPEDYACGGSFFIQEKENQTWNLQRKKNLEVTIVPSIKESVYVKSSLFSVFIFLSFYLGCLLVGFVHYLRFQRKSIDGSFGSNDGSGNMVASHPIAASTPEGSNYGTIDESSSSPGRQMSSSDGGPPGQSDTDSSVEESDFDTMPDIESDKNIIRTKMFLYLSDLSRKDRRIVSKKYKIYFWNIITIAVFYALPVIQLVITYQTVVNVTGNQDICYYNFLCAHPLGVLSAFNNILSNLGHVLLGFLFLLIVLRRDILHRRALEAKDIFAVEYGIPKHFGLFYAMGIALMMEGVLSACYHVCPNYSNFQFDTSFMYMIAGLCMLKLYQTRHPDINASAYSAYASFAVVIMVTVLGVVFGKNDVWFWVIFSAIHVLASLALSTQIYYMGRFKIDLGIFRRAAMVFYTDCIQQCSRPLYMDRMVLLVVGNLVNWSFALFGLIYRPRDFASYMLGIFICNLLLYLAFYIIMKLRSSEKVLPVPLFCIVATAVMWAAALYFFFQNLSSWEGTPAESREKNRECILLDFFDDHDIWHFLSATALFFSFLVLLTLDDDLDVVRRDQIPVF

B1: 46 bp dsRNA (dsRNA)
RNA 1: AUUCUGCGGAUUAUUUGGCAAAGGAAGCAUUGACACAUGCGCCAAU
RNA 2: AUUGGCGCAUGUGUCAAUGCUUCCUUUGCCAAAUAAUCCGCAGAAU

Assays:
[1] = target: T1, human SIDT1 (hSIDT1); test: TLC fluorescence ceramidase assay; assay type: biochemical; settings: labelled compound; 10 mM methyl beta-cyclodextrin required (cholesterol depletion); pH 8.0, 0.01% GDN, 37 °C, 3 h
[2] = target: T1, human SIDT1 (hSIDT1); test: cryo-EM structure, […] A; GC/MS of purified protein; assay type: binding; settings: endogenous, co-purified; allosteric; TM5/TM6/TM7 pocket at intracellular side; two molecules per protomer described (CLR1, CLR2); GDN, pH 6.0
[3] = target: T2, human SIDT1 full length WT; test: EMSA; pH 7.0; EMSA: 1 or 2 uM 46 bp dsRNA with 0-8 uM hSIDT1 (mutants 1-5 uM, 1 uM dsRNA, pH 5.0), 4 C, 2 h; electrophoresis in Tris-acetate buffer at pH 4.0-7.0; protein stock in 20 mM MES pH 6.0, 150 mM NaCl, 0.01% GDN; settings: protein: recombinant; tags: C-terminal TEV site, FLAG, His10; chain copies: 2; blunt (implied by 46 bp)

Molecule	TLC fluorescence ceramidase assay [1]	also measured
CCCCCCCCCCCCC/C=C/[C@@H](O)[C@H](CO)NC(=O)CCCCCCCCCCCNc1ccc([N+](=O)[O-])c2nonc12 [C12 NBD ceramide]	SIDT1 exhibited a ceramidase activity only in the presence of methyl β-cyclodextrin	–
CCCCCCCCCCCCCCC[C@@H](O)[C@H](CO)NC(=O)CCCCCCCCCCCNc1ccc([N+](=O)[O-])c2nonc12 [C12 NBD dihydroceramide]	SIDT1 also harbors a ceramidase activity to ceramide and dihydroceramide	–
CC(C)CCC[C@@H](C)[C@H]1CC[C@H]2[C@@H]3CC=C4C[C@@H](O)CC[C@]4(C)[C@H]3CC[C@]12C [cholesterol]	–	cryo-EM structure, 2.77 A; GC/MS of purified protein [2]: endogenous cholesterol is assumed to be co-purified with SIDT1
B1	–	binding result [3]: binds

Reference: publication PMC11137008, “Cryo-EM analysis reveals human SID-1 transmembrane family member 1 dynamics underlying lipid hydrolytic activity” (Communications Biology, 2024)
